A short description of one series: RLM metabolism half-life. Type of series: in vitro ADME. Particulars: rat liver microsomes. On the technique in general: Microsomes from liver hold many membrane-bound enzymes, among them those of drug oxidation.
Series [1] is classed as in vitro ADME. The note with it: human liver microsomes.
Protocol: (§1) The assay was done in a final volume of 0.5 ml in duplicates (n=2). […] After pre-incubation, reaction was started by addition of 1 mM NADPH (pre-incubated at 37° C.). Incubations were carried out in triplicate and at various time-points (0, 5, 10, 15, 30 and 60 minutes) 100 μl aliquots were removed and quenched with 100 μl of acetonitrile containing internal standard. Samples were vortex mixed and centrifuged at 4000 rpm for 10 minutes. The supernatants were transferred to 96 well plates and submitted for LC-MS/MS analysis. As control, sample incubations done in absence of NADPH were included. From % PCR (% Parent Compound Remaining), rate of compound disappearance is determined (slope) and in vitro CLint (μl/min/mg protein) was calculated.
The test system of another series is full length AR. In words: LNCaP or AD1 degradation (AR FL), Western blot. Type of series: cell-based. On the technique in general: Immunoblotting shows a protein as a band on a membrane.
Another series in a line: in vivo. The note with it: male, Sprague Dawley, rat, 20 mpk.
The conditions of series [2]: for metabolism (in words): data not shown.
The nature of series [3]: High dose Hershberger experiment, 7 days oral. It counts as in vivo, Sprague Dawley rat. The note with it: 100 mpk oral 7 days, individual animals.
Protocol: Body weights were recorded on day 0 and day 7 (Table 4B). On day 7, animals were sacrificed and organs were observed.
Series [4] can be described thus: Pharmacokinetics in male Sprague Dawley rats (oral 7 days, iv Day 1).
Protocol: At initial dosing, the animals were 12 weeks of age. The animals were group housed (up to three animals/cage/group) in polycarbonate cages with hardwood chip bedding. […] Water was provided fresh daily, ad libitum. […] As necessary, the 12-hour dark cycle was interrupted to accommodate study procedures. […] Individual doses were calculated based on body weights recorded on Day 1 and Day 7 of dose administration. […] A single intravenous dose was administered via a tail vein and blood sample on Day 1.
Animals were weighed at the time of animal selection and on Day 1 and Day 7 of dose administration.
Centrifugation began within 1 hour of collection. Plasma was placed into 96-well tubes with barcode labels. Plasma was maintained on dry ice prior to storage at approximately −70° C. Drug concentrations were measured by established chromatography/mass spectrometry (LC-MS/MS) methods.

Structures are written as SMILES. Several values for one entry are separate records, joined by “and”; a condition that tells them apart may be missing. Equal values may be shown once. Read-outs that look alike come from different tables or passages of the source.

Protocol for RLM metabolism half-life: as §1

On to `C[C@](O)(Cn1cc(-c2ccc(F)cc2)nn1)C(=O)Nc1ccc(C#N)c(C(F)(F)F)c1` [Compound 1045], for which the “pharmacokinetic properties (in words)” value (20 mg/kg Hershberger experiment) was “outstanding pharmacokinetic properties”.
`C[C@](O)(Cn1cc(C#N)cn1)C(=O)Nc1ccc(C#N)c(C(F)(F)F)c1` [Compound 1048]: in the series “RLM metabolism half-life”, the “RLM Metebolism (H.L. min)” value was determined as 86 min. The “HLM Metabolism (H.L. min)” value in series [1] is 400 min.
For `C[C@](O)(Cn1ncc(Cl)c1Br)C(=O)Nc1ccc(C#N)c(C(F)(F)F)c1` [Compound 1067, (S)-3-(5-Bromo-4-chloro-1H-pyrazol-1-yl)-N-(4-cyano-3-(trifluoromethyl)phenyl)-2-hydroxy-2-methylpropanamide], the “SARD Activity Full Length % inhibition at 1 μM” value with full length AR (first value of the pair, 1 μM) is reported as 61%. Further, in the series with full length AR (second value of the pair, 10 μM), the “SARD Activity Full Length % inhibition at 10 μM” value is recorded as 86%.
`C[C@](O)(Cn1cc(F)cn1)C(=O)Nc1cnc(C#N)c(C(F)(F)F)c1` [Compound 1022]: in the series “RLM metabolism half-life”, the “RLM Metebolism (H.L. min)” value is 146 min. Besides, the “HLM Metabolism (H.L. min)” value in series [1] was 108 min. The “Serum Conc.” value runs as follows: (Table 2, rats 20 mg/kg, 24-30 hours after last dose) 64 nM; (Table 3, 20 mg/kg Hershberger) 64 nM. Besides, for the setting “rats dosed at 20 mg/kg”, the “serum drug level (bioavailability)” value was found to be 64 nM. Moreover, in the series “in vivo”, the concentration at 30 h was 64 nM.
On to `C[C@](O)(Cn1nc(F)c2cc(F)ccc21)C(=O)Nc1cnc(C#N)c(C(F)(F)F)c1` [Compound 99, (S)—N-(6-Cyano-5-(trifluoromethyl)pyridin-3-yl)-3-(3,5-difluoro-1H-indazol-1-yl)-2-hydroxy-2-methylpropanamide], for which the “metabolism (in words)” value in series [2] was “rapid metabolism”.
Turning to `C[C@](O)(Cn1cc(C(F)(F)F)cn1)C(=O)Nc1ccc(C#N)c(C(F)(F)F)c1` [Compound 1017], the “RLM Metebolism (H.L. min)” value in “RLM metabolism half-life” worked out at 400 min. The “HLM Metabolism (H.L. min)” value in series [1] turned out to be 400 min. Moreover, in series [2] (MLM), the “DMPK (MLM) T1/2 (min)” value was “Infinity”.
Regarding `C[C@](O)(Cn1cc(Br)c(F)n1)C(=O)Nc1ccc(C#N)c(C(F)(F)F)c1` [Compound 1058], the “RLM Metebolism (H.L. min)” value in “RLM metabolism half-life” came out at 400 min. Also, the “HLM Metabolism (H.L. min)” value in series [1] was found to be 138 min. For the same molecule, the “Body wt. on sac. day” value in series [3] was 430 g and 470 g. For the same molecule, the “Day 0 body wt.” value in series [3] was 430 g and 472 g. Also, the “decreased exposure at the same dose as 1065” value in series [4] (20 mg/kg) stood at 37%. The “DN AUC0-24” value in series [4] (Table 10, Group 1, oral 5 mg/kg/day) was 5350 (h * ng/mL)/(mg/kg/day); in series [4] (Table 10, Group 2, oral 10 mg/kg/day), 4460 (h * ng/mL)/(mg/kg/day); in series [4] (Table 10, Group 3, oral 20 mg/kg/day), 3200 (h * ng/mL)/(mg/kg/day); in series [4] (Table 10, Group 4, oral 30 mg/kg/day), 2380 (h * ng/mL)/(mg/kg/day); in series [4] (Table 10, Group 5, iv 10 mg/kg Day 1), 4550 (h * ng/mL)/(mg/kg/day).
Turning to `C[C@](O)(Cn1cc(Cl)c(Br)n1)C(=O)Nc1ccc(C#N)c(C(F)(F)F)c1` [Compound 1066, (S)-3-(3-Bromo-4-chloro-1H-pyrazol-1-yl)-N-(4-cyano-3-(trifluoromethyl)phenyl)-2-hydroxy-2-methylpropanamide], the “RLM Metebolism (H.L. min)” value in the series “RLM metabolism half-life” was found to be 300 min. In addition, the “HLM Metabolism (H.L. min)” value in series [1] amounted to 319 min.
As to `C[C@](O)(Cn1ccc2cc(F)ccc21)C(=O)Nc1ccc(C#N)c(C(F)(F)F)c1` [Compound 11], the “Degradation (% at 3 μM)” value in the series with full length AR (3 μM, Table 3) is 60%. The “HLM Metabolism (H.L. min)” value in series [1] was 6 min.
For the molecule `C[C@](O)(Cn1ccc2cc(F)ccc21)C(=O)Nc1cnc(C#N)c(C(F)(F)F)c1` [Compound 47, (S)—N-(6-Cyano-5-(trifluoromethyl)pyridin-3-yl)-3-(5-fluoro-1H-indol-1-yl)-2-hydroxy-2-methylpropanamide], the “metabolism (in words)” value in series [2] is on record as “rapid metabolism”.

(Values after patent US12202815B2, “Selective androgen receptor degrader (SARD) ligands and methods of use thereof” (priority 2018, dated 2025).)
